The assay addresses T1, Peptidoglycan D,D-transpeptidase FtsI (UniProt P0AD68).
T1 sequence (P0AD68 whole entry): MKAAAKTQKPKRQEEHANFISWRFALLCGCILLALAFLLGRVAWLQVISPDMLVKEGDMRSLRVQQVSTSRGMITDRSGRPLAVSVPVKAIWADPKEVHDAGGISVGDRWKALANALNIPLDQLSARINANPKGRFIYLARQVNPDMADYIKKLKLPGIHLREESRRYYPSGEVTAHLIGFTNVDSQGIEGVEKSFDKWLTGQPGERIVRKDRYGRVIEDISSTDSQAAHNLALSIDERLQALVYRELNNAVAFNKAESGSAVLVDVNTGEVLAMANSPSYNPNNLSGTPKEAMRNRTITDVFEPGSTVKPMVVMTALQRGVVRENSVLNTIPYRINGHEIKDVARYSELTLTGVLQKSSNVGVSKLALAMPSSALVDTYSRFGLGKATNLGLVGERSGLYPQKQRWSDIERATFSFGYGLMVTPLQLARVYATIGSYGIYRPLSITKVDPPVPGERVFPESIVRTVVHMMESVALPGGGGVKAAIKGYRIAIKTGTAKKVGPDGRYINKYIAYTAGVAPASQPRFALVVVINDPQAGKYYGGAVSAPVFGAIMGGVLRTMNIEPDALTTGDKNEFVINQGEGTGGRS
Description: Fluorescence Polarization (FP) Competition Binding Assay. The method, then:
To establish assay conditions for competition binding, an enzyme titration/saturation binding experiment was initially performed. Bocillin-FL was prepared at 0.2 μM in a buffer comprised of 50 mM Hepes (pH 8.0), 300 mM NaCl and 5% (v/v) glycerol. […] FP was measured immediately upon mixing (Excitation, 490 nm; Emission, 520 nm; g-factor, 0.96), using a Cytation3 (BioTek) microplate reader and measured continuously for up to 120 minutes. […] Bocillin-FL was added and the FP immediately measured for 60 minutes (90 minutes for PBP2).
On the technique in general: Fluorescence polarisation rises when a labelled molecule tumbles more slowly, as on binding a larger partner.

Where only a bound is given, the exact number is not on record here.

The values that follow come from BindingDB's records for patent US12173018 (Venatorx Pharmaceuticals, 2024).

Broadly, the EC50 is the concentration at which the effect is half-maximal. Low readings indicate higher potency in that assay, high ones lower potency in that assay.

As to `CCN1CCN(C(=O)NC(C(=O)N[C@H]2Cc3cccc(C(=O)O)c3OB2O)c2ccc(O)c(S(N)(=O)=O)c2)C(=O)C1=O` (some centres not stated) [US12173018, Example 143], the EC50 is < 30 µM.

For `NCCN1CCN(C(=O)N[C@@H](C(=O)N[C@H]2Cc3cccc(C(=O)O)c3OB2O)c2ccc(O)c(O)c2Cl)C(=O)C1=O` [US12173018, Example 220], the EC50 is < 30 µM.
